Where two headings read alike, the source gives them in different places. One block for each molecule: values may come before it.
Columns and labels:
Assay type in all cases: cell-based
[1] = biological target: T1, NKX2-5 transcriptional activity (Mus musculus, UniProt P42582); test: NKX2-5 luciferase reporter assay (3xNKE reporter, COS-1 cells); details: for activity at 3 µM: read-out: NKX.3µM; for activity at 10 µM: read-out: NKX.10µM
T1 construct: expressed in transfected cells; host or cells: COS-1
Protocol: (§1) To screen compounds for the GATA4–NKX2-5 interaction, we have developed a luciferase reporter assay based on their property to activate gene transcription synergistically through the NKX2-5 binding site on DNA.[28] In this assay, we transfected mammalian COS-1 cells with protein expression vectors for GATA4 and NKX2-5 proteins together with artificial luciferase reporter vector containing three high affinity binding sites for NKX2-5 (NKE). […] All 257 compounds were tested in two concentrations, 3 and 10 μM. Compounds either inhibited, enhanced, or had no effect on the GATA4–NKX2-5 transcriptional synergy. To investigate the selectivity of the active compounds, we tested their effects on NKX2-5 transcriptional activity by using the same luciferase reporter vector as in transcriptional synergy assay with three NKE sites (Figure 3B). Furthermore, we used GATA luciferase reporter assay to examine if compounds have an effect on GATA4 transcriptional activity. In this assay, we cotransfected the cells with a GATA4 protein expression vector and a reporter vector with tandem GATA4 binding sites (Figure 3C). Previously we have reported that compound 1 inhibited the GATA4–NKX2-5 transcriptional synergy at micromolar concentrations (IC50 = 3 μM).[29]
(§2) The plasmids expressing mouse GATA4 protein, pMT2-GATA4, and empty pMT2 were gifts from D. B. Wilson (Department of Pediatrics, St. Louis Children’s Hospital, St. Louis, MO).[44] The plasmids expressing mouse NKX2-5 protein, pMT2-NKX2-5, have been described earlier.[28] The luciferase reporter plasmid used in GATA4–NKX2-5 transcriptional synergy assay and NKX transcriptional assay, pGL3-3xHA, contains three high affinity binding sites for NKX2-5.[28] The luciferase reporter plasmid used in GATA transcriptional assay, NP-112, contains tandem GATA-sites and minimal promoter of rat brain natriuretic peptide (BNP) gene.[45] The pGL3-BNP luciferase reporter containing −534/+4 bp rat BNP proximal promoter described previously was used in hypertrophy assay.[46]
(§3) The primary screening assay of compounds’ effect on GATA4–NKX2-5 transcriptional synergy and COS-1 cell culturing has been described earlier.[33] […] (Kinnunen et al., unpublished observation). Briefly, COS-1 cells were seeded at 14 000 cells/well in Isoplate-96 microplates (PerkinElmer, Turku, Finland) and grown overnight. The cells were transfected with the luciferase reporter plasmid pGL3-3xHA 100 ng/well and equal amounts of expression plasmids pMT2-GATA4 and pMT2-NKX2-5 total 50 ng/well. To verify the synergistic effect, the cells were transfected with pMT2-GATA4 or pMT2-NKX2-5 25 ng/well, and the total DNA concentration was adjusted to 50 ng/well with empty pMT2 plasmid. In NKX2-5 and GATA4 luciferase reporter assays, the cells were transfected with reporter plasmid pGL3-3xHA or NP-112 (100 ng/well) and expression plasmid pMT2-NKX2-5 or pMT2-GATA4 (25 ng/well). The ratio of DNA/transfection reagent (Fugene 6, Promega) was 1:3 in all assays. The transfections were performed in serum and antibiotics free media for 6 h. The cells were treated with compounds or vehicle (0.1% DMSO) for 24 h, and the luminescence was measured using neolite Reporter Gene Assay System (PerkinElmer, Turku, Finland) and Victor2 plate reader (PerkinElmer, Turku, Finland).
(§4) Raw luciferase data were analyzed in Excel, and clear outliers were removed from triplicates by using the Grubb’s test. Data analysis was performed using R.[49] The luciferase data were first normalized on the basis of the combined mean value of controls. For data visualization and creation of figures, the following R packages were used: ggplot2, cowplot, RColorBrewer, and pheatmap. The heatmaps of the toxicity data were produced with GraphPad Prism 7.00 (GraphPad Software, La Jolla, CA). Statistical significance of luciferase reporter assay data was evaluated by randomized block analysis of variance followed by Dunnett’s post hoc test. […]

[2] = biological target: T2, GATA4–NKX2-5 transcriptional synergy (Mus musculus, UniProt P42582+Q08369); test: GATA4–NKX2-5 transcriptional synergy luciferase reporter assay (3xNKE reporter, COS-1 cells)
T2 construct: expressed in transfected cells; host or cells: COS-1

[3] = biological target: T3, GATA4 transcriptional activity (Mus musculus, UniProt Q08369); test: GATA4 luciferase reporter assay (tandem GATA-site reporter, COS-1 cells)
T3 construct: expressed in transfected cells; host or cells: COS-1
Protocol: as §1, §2, §3, §4

[4] = tested on: COS-1 cells; test: MTT assay (cell viability)
Source text: (§5) To investigate the toxicity as a potential cause of decreased or increased activity in luciferase reporter gene assays, we tested a set of 40 active compounds in the COS-1 cell line used for the luciferase assays. Concentration-dependent toxic effects were investigated using the lactate dehydrogenase (LDH) assay to detect necrosis and the 3-(4,5-dimethylthiazol-2-yl)-2,5-diphenyltetrazolium bromide (MTT) assay as a measure of cell viability. […] For the data analysis, compounds were classified as toxic (Figures 5 and 7) if they induced a >10% decrease in cell viability in the MTT assay at the concentration of 10 μM. The most toxic compounds (35a, 35d, 54, 58, and 63–65) in the MTT assay all contained a phenyl substituent in the southern part ring, while the ortho-nitrophenyl-derivative 39g and the phenyl-substituted thiophene 47t were nontoxic. Higher flexibility in the central parts of the ethers (35a, 35d) and N-acylated amines (58, 64) might contribute to their toxicity, because less rigid compounds are more likely to have affinity to various biological targets. Such interactions can cause toxicity. To confirm and validate the results from MTT assays, we tested three nontoxic (2, 47s, and 72) and three toxic (1, 35a, and 58) compounds in a cell viability assay measuring intracellular ATP content.
(§6) Figure 5 Effects of selected compounds on COS-1 cell viability. (A) Compound-induced necrosis was quantified with the LDH assay after a 24-h compound exposure. The data are presented as cytotoxicity percentage (% of maximal LDH release). (B) Cell viability was analyzed with the MTT assay after a 24-h compound exposure. (A,B) The data are means from 2–3 independent experiments with 3 replicate wells in each and are presented as % of control (vehicle-treated cells). The compounds have been grouped on the basis of the structure of the central part: a, amide; b, ether; c, N-acylated amine; d, amine; and e, imine. (C) The effects of selected compounds on cell viability as determined by ATP content after a 24-h compound exposure. The data are mean + SEM from three independent experiments and are presented as % of vehicle-treated cells.
(§7) For toxicity screening, COS-1 cells were cultured in DMEM (Sigma-Aldrich, Steinheim, Germany) supplemented with 10% fetal bovine serum, 100 U/mL penicillin, and 100 μg/mL streptomycin (all from Gibco, Thermo Scientific) at 37 °C with 5% CO2. The cells were plated on 96-well plates at 10 000 cells/well and exposed to test compounds at a concentration range of 1–30 μM on the following day. After a 24-h compound treatment, lactate dehydrogenase (LDH) and 3-(4,5-dimethylthiazol-2-yl)-2,5-diphenyltetrazolium bromide (MTT) assays were carried out as described previously.[48] Briefly, LDH activity was determined from 50 μL samples of cell culture medium, to which 50 μL of substrate solution [1.3 mM β-nicotinamide-adenine dinucleotide, 660 μM iodonitrotetrazolium, 54 mM L(+)-lactic acid, and 280 μM phenazine methosulfate in 0.2 M Tris-HCl, pH 8.2, all from Sigma-Aldrich] was added, and the plate was incubated for 30 min at room temperature. The reaction was stopped with acetic acid (final concentration 333 mM), and absorbance was measured at 490 nm. The absorbance values of the samples were normalized to maximal LDH release and spontaneous LDH release determined on the same plate. Mitochondrial metabolic activity was quantified by incubating the cells with 0.5 mg/mL MTT (from Sigma-Aldrich) for 2 h at 37 °C with 5% CO2, whereafter culture medium was removed and formazan crystals were dissolved in DMSO. The absorbance was measured at 550 nm, and absorbance at 650 nm was subtracted as background.

[5] = tested on: COS-1 cells; test: LDH assay (necrosis)
Source text: as §5, §6, §7

[6] = COS-1, 3 µM, luciferase reporter activity, % of control
[7] = COS-1, compound 3 µM, luciferase reporter activity, spread in separate STDEV column
[8] = 3 µM compound, NKX2-5 luciferase reporter, COS-1 cells
[9] = 10 µM compound, NKX2-5 luciferase reporter, COS-1 cells
[10] = 3 µM compound, GATA4–NKX2-5 transcriptional synergy reporter, COS-1 cells
[11] = 10 µM compound, GATA4–NKX2-5 transcriptional synergy reporter, COS-1 cells
[12] = 3 µM compound, GATA4 luciferase reporter, COS-1 cells
[13] = 10 µM compound, GATA4 luciferase reporter, COS-1 cells
[14] = COS-1, compound at 3 µM, luciferase reporter activity, % of control
[15] = COS-1, compound at 10 µM, luciferase reporter activity, % of control
[16] = COS-1, compound 10 µM, luciferase reporter activity, spread in separate STDEV column
[17] = COS-1, 10 µM, luciferase reporter activity, % of control

T2 sequence (Q08369 whole entry): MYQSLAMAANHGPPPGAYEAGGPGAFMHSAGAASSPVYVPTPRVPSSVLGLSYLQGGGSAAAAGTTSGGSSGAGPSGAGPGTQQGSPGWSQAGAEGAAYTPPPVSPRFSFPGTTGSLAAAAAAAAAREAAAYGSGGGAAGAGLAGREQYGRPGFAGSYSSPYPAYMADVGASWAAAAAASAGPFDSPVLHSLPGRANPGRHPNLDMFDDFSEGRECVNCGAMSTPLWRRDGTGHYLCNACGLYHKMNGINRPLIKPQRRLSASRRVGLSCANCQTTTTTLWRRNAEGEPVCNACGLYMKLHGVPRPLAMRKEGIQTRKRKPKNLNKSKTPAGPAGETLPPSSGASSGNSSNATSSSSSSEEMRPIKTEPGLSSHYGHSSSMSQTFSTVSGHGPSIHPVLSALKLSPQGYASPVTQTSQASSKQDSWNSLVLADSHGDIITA
T2 sequence (P42582 whole entry): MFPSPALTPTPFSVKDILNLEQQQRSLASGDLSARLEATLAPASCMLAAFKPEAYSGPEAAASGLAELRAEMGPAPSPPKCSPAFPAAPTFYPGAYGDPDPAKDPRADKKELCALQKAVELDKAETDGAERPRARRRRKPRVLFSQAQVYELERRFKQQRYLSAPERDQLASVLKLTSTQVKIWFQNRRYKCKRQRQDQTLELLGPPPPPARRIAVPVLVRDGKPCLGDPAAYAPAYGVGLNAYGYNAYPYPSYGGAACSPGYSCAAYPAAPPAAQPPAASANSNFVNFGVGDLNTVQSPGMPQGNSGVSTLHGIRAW
T3 sequence (Q08369 whole entry): as the sequence (Q08369 whole entry) above
T1 sequence (P42582 whole entry): as the sequence (P42582 whole entry) above

SMILES: CCN(CC)c1ccc(NC(=O)c2c(C)nc3ccccn23)cc1 [Compound 47ab]
activity at 3 µM [1, 6]: 106% | activity at 3 µM [2, 6]: 83.4% | activity at 3 µM [3, 6]: 127%

SMILES: CCN(CC)c1ccc(NC(=O)c2cn(C)nc2-c2cc(C)on2)cc1 [Compound 47f]
activity at 3 µM [1, 7]: 108% | activity at 3 µM [2, 7]: 110%

SMILES: CCc1noc(C)c1C(=O)Nc1ccc(N(CC)CC)cc1 [Compound 39b]
activity at 3 µM [1, 8]: 124% | activity at 10 µM [1, 9]: 164% | activity at 3 µM [2, 10]: 97.5% | activity at 10 µM [2, 11]: 104% | activity at 3 µM [3, 12]: 120% | activity at 10 µM [3, 13]: 143%

SMILES: CCN(CC)c1ccc(NC(=O)c2c(-c3ccccc3Cl)noc2C)cc1 [Compound 39k]
effect on NKX2-5 transcriptional activity (in words) [1]: did not affect | activity at 3 µM [1, 14]: 157% | activity at 3 µM [2, 14]: 107% | effect on GATA4 transcriptional activity (in words) ([3]; 10 µM): slightly increased | activity at 3 µM [3, 14]: 86.1% | activity at 10 µM [3, 15]: 112%

SMILES: CCN(CC)c1ccc(NC(=O)c2c(-c3ccoc3)noc2C)cc1 [Compound 39n]
activity at 3 µM [1, 8]: 122% | activity at 10 µM [1, 9]: 106% | activity at 3 µM [2, 10]: 119% | activity at 10 µM [2, 11]: 105% | activity at 3 µM [3, 12]: 108%

SMILES: Cc1cc(-c2onc(C)c2C(=O)Nc2ccc3oc(-c4ccccc4)cc(=O)c3c2)no1 [Compound 73]
activity at 3 µM [2, 10]: 107% | activity at 10 µM [2, 11]: 114% | activity at 3 µM [3, 12]: 127% | activity at 10 µM [3, 13]: 123%

SMILES: CCN(CC)c1ccc(NC(=O)c2cn(C)cc2-c2cc(C)on2)cc1 [Compound 47m]
activity at 3 µM [1, 7]: 116% | activity at 10 µM [1, 16]: 114% | activity at 3 µM [2, 7]: 116%

SMILES: CCN(CC)c1ccc(NC(=O)c2c(-n3cccc3)sc(C)c2C)cc1 [Compound 56]
activity at 3 µM [1, 8]: 102% | activity at 3 µM [2, 10]: 93.8%

SMILES: CCN(CC)c1ccc(NC(=O)c2c(-c3cccc([N+](=O)[O-])c3)noc2C)cc1 [Compound 39g]
MTT.1µM ([4]; 1 µM, cell viability): 105.86 | MTT.3µM ([4]; 3 µM, cell viability): 108.44 | MTT.10µM ([4]; 10 µM, cell viability): 106.4 | MTT.30µM ([4]; 30 µM, cell viability): 104.14 | toxicity class in the MTT assay ([4]; 24-h exposure, classified at 10 μM): nontoxic (nontoxic compounds (cell viability >90%)) | activity at 3 µM ([2]; COS-1, 3 µM, luciferase reporter activity relative to control): 93.4% | LDH.1µM ([5]; 1 µM): 1.8 | LDH.3µM ([5]; 3 µM): 1.19 | LDH.10µM ([5]; 10 µM): -0.41 | LDH.30µM ([5]; 30 µM): -0.68

SMILES: CCN(CC)c1ccc(N(C)C(=O)c2c(-c3ccccc3)noc2C)cc1 [Compound 25a]
activity at 10 µM [1, 17]: 101% | activity at 3 µM [2, 6]: 78.1%

SMILES: CCN(CC)c1ccc(NC(=O)c2ncoc2-c2ccccc2)cc1 [Compound 47a]
activity at 3 µM [2, 6]: 90.7% | activity at 10 µM [2, 17]: 112%

SMILES: CCN(CC)c1ccc(/N=C/c2onc(-c3ccccc3)c2C(=O)OC)cc1 [Compound 51]
activity at 3 µM [2, 14]: 81.3% | activity at 10 µM [2, 15]: 93.5%

SMILES: CCN(CC)c1ccc(NC(=O)c2c(-c3c(Cl)cccc3Cl)noc2C)cc1 [Compound 39e, 3-(2,6-Dichlorophenyl)-N-[4-(diethylamino)phenyl]-5-methylisoxazole-4-carboxamide]
activity at 3 µM [2, 14]: 88.9%

Now from value to molecule:

activity at 3 µM [2, 14]: 72.7% | activity at 10 µM [2, 15]: 112%
SMILES: CCN(c1ccc(NC(=S)c2c(-c3ccccc3)noc2C)cc1)C(C)C [SI38]

activity at 3 µM [2, 6]: 92.6% | activity at 10 µM [2, 17]: 82.9%
SMILES: Cc1onc(-c2ccccc2)c1COCc1ccc(OC(F)(F)F)cc1 [SI49]

activity at 3 µM ([2]; COS-1, GATA4-NKX2-5 transcriptional synergy luciferase reporter assay, compound at 3 µM): 91.7% | activity at 10 µM ([2]; COS-1, GATA4-NKX2-5 transcriptional synergy luciferase reporter assay, compound at 10 µM): 90.7%
SMILES: CCN(CC)c1ccc(NC(=O)c2cc(-c3ccco3)[nH]n2)cc1 [SI120]

activity at 3 µM [2, 6]: 82.6% | activity at 10 µM [2, 17]: 101%
SMILES: CCN(CC)c1ccc(/N=N/c2c(C)noc2C)cc1 [SI20]

activity at 3 µM [2, 7]: 109% | activity at 10 µM [2, 16]: 99.7%
SMILES: Cc1onc(-c2ccccc2)c1NCc1ccc(N(CCO)CCO)cc1 [SI43]

activity at 3 µM [2, 14]: 106% | activity at 10 µM [2, 15]: 113%
SMILES: Cc1onc(-c2ccccc2)c1C(=O)N(N)S(=O)(=O)c1ccccc1 [SI27]
